Source: US20240043404A1 (AbbVie Inc., priority 2009, published 2024)

System: RS4;11 cells
Assay: RS4;11 cell viability assay (CellTiter Glo);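 also: acute lymphoblastic leukemia line RS4,11, EC50 derived from percentage of viable cells after treatment relative to untreated controls, cell killing taken as a measure of Bcl-2 inhibition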
Type: cell-based, human
Conditions: Homo sapiens, RS4-11, 48 h, 50,000 cells per well, 10% human serum, 48 hours; read-out: RS4; 11 EC50 Values
Protocol: The acute lymphoblastic leukemia (ALL) cell line RS4;11 was used as the primary human cell line to assess the cellular activity of Bcl-2 selective agents in vitro and their efficacy in vivo.
Cell cytotoxicity EC50 values were assessed using CellTiter Glo (Promega) according to the manufacturer's recommendations. The EC50 values were determined as a percentage of viable cells following treatment compared to the untreated control cells.

| Compound | EC50 |
| --- | --- |
| CC1(C)CCC(CN2CCN(c3ccc(C(=O)NS(=O)(=O)c4cnc(OCCC5CCOCC5)c(C#N)c4)c(Oc4cnc5[nH]ccc5c4)c3)CC2)=C(c2ccc(Cl)cc2)C1 [Example 278, 4-(4-{[2-(4-chlorophenyl)-4,4-dimethylcyclohex-1-en-1-yl]methyl}piperazin-1-yl)-N-({5-cyano-6-[2-(tetrahydro-2H-pyran-4-yl)ethoxy]pyridin-3-yl}sulfonyl)-2-(1H-pyrrolo[2,3-b]pyridin-5-yloxy)benzamide] | 0.794 µM |
| CC1(C)CCC(CN2CCN(c3ccc(C(=O)NS(=O)(=O)c4ccc(OCc5ccoc5)c([N+](=O)[O-])c4)c(Oc4cnc5[nH]ccc5c4)c3)CC2)=C(c2ccc(Cl)cc2)C1 [Example 279, 4-(4-{[2-(4-chlorophenyl)-4,4-dimethylcyclohex-1-en-1-yl]methyl}piperazin-1-yl)-N-{[4-(3-furylmethoxy)-3-nitrophenyl]sulfonyl}-2-(1H-pyrrolo[2,3-b]pyridin-5-yloxy)benzamide] | 0.225 µM |
| CC1(C)CCC(CN2CCN(c3ccc(C(=O)NS(=O)(=O)c4cnc(OC[C@@H]5CCN(C(CF)CF)C5)c(Cl)c4)c(Oc4cnc5[nH]ccc5c4)c3)CC2)=C(c2ccc(Cl)cc2)C1 [Example 280, N-[(5-chloro-6-{[(3R)-1-(1,3-difluoropropan-2-yl)pyrrolidin-3-yl]methoxy}pyridin-3-yl)sulfonyl]-4-(4-{[2-(4-chlorophenyl)-4,4-dimethylcyclohex-1-en-1-yl]methyl}piperazin-1-yl)-2-(1H-pyrrolo[2,3-b]pyridin-5-yloxy)benzamide] | 0.459 µM |
| CC1(C)CCC(CN2CCN(c3ccc(C(=O)NS(=O)(=O)c4cnc(OCC5(F)CCN(C(CF)CF)CC5)c(Cl)c4)c(Oc4cnc5[nH]ccc5c4)c3)CC2)=C(c2ccc(Cl)cc2)C1 [Example 282, N-[(5-chloro-6-{[1-(1,3-difluoropropan-2-yl)-4-fluoropiperidin-4-yl]methoxy}pyridin-3-yl)sulfonyl]-4-(4-{[2-(4-chlorophenyl)-4,4-dimethylcyclohex-1-en-1-yl]methyl}piperazin-1-yl)-2-(1H-pyrrolo[2,3-b]pyridin-5-yloxy)benzamide] | 0.0322 µM |
| CN1CCC(F)(COc2ccc(S(=O)(=O)NC(=O)c3ccc(N4CCN(CC5=C(c6ccc(Cl)cc6)CC(C)(C)CC5)CC4)cc3Oc3cnc4[nH]ccc4c3)cc2Cl)CC1 [Example 283, N-({3-chloro-4-[(4-fluoro-1-methylpiperidin-4-yl)methoxy]phenyl}sulfonyl)-4-(4-{[2-(4-chlorophenyl)-4,4-dimethylcyclohex-1-en-1-yl]methyl}piperazin-1-yl)-2-(1H-pyrrolo[2,3-b]pyridin-5-yloxy)benzamide] | 0.0131 µM |
| CC1(C)CCC(CN2CCN(c3ccc(C(=O)NS(=O)(=O)c4ccc(OCC5CCOCC5)c(C#N)c4)c(Oc4cnc5[nH]ccc5c4)c3)CC2)=C(c2ccc(Cl)cc2)C1 [Example 284, 4-(4-{[2-(4-chlorophenyl)-4,4-dimethylcyclohex-1-en-1-yl]methyl}piperazin-1-yl)-N-{[3-cyano-4-(tetrahydro-2H-pyran-4-ylmethoxy)phenyl]sulfonyl}-2-(1H-pyrrolo[2,3-b]pyridin-5-yloxy)benzamide] | 0.162 µM |
| CC1(C)CCC(CN2CCN(c3ccc(C(=O)NS(=O)(=O)c4ccc(OCC5(F)CCOCC5)c(Cl)c4)c(Oc4cnc5[nH]ccc5c4)c3)CC2)=C(c2ccc(Cl)cc2)C1 [Example 286, N-({3-chloro-4-[(4-fluorotetrahydro-2H-pyran-4-yl)methoxy]phenyl}sulfonyl)-4-(4-{[2-(4-chlorophenyl)-4,4-dimethylcyclohex-1-en-1-yl]methyl}piperazin-1-yl)-2-(1H-pyrrolo[2,3-b]pyridin-5-yloxy)benzamide] | 0.0345 µM |
| CC1(C)CCC(CN2CCN(c3ccc(C(=O)NS(=O)(=O)c4cnc(OCC5CCC(F)(F)CC5)c(Cl)c4)c(Oc4cnc5[nH]ccc5c4)c3)CC2)=C(c2ccc(Cl)cc2)C1 [Example 287, N-({5-chloro-6-[(4,4-difluorocyclohexyl)methoxy]pyridin-3-yl}sulfonyl)-4-(4-{[2-(4-chlorophenyl)-4,4-dimethylcyclohex-1-en-1-yl]methyl}piperazin-1-yl)-2-(1H-pyrrolo[2,3-b]pyridin-5-yloxy)benzamide] | 0.593 µM |
| CC1(C)CCC(CN2CCN(c3ccc(C(=O)NS(=O)(=O)c4cnc(OCC5(F)CCN(C(CF)CF)CC5)c(C(F)(F)F)c4)c(Oc4cnc5[nH]ccc5c4)c3)CC2)=C(c2ccc(Cl)cc2)C1 [Example 288, 4-(4-{[2-(4-chlorophenyl)-4,4-dimethylcyclohex-1-en-1-yl]methyl}piperazin-1-yl)-N-{[6-{[1-(1,3-difluoropropan-2-yl)-4-fluoropiperidin-4-yl]methoxy}-5-(trifluoromethyl)pyridin-3-yl]sulfonyl}-2-(1H-pyrrolo[2,3-b]pyridin-5-yloxy)benzamide] | 0.39 µM |
| CC1(C)CCC(CN2CCN(c3ccc(C(=O)NS(=O)(=O)c4cnc(OCCC5CCCO5)c(Cl)c4)c(Oc4cnc5[nH]ccc5c4)c3)CC2)=C(c2ccc(Cl)cc2)C1 (stereo not shown) [Example 289, 4-(4-{[2-(4-chlorophenyl)-4,4-dimethylcyclohex-1-en-1-yl]methyl}piperazin-1-yl)-N-({5-chloro-6-[2-(tetrahydrofuran-2-yl)ethoxy]pyridin-3-yl}sulfonyl)-2-(1H-pyrrolo[2,3-b]pyridin-5-yloxy)benzamide] | 0.669 µM |
| CC1CN(c2ccc(C(=O)NS(=O)(=O)c3ccc(NCC4CCOCC4)c([N+](=O)[O-])c3)c(Oc3cnc4[nH]ccc4c3)c2)CCN1CC1=C(c2ccc(Cl)cc2)CC(C)(C)CC1 (stereo not shown) [Example 290, 4-(4-{[2-(4-chlorophenyl)-4,4-dimethylcyclohex-1-en-1-yl]methyl}-3-methylpiperazin-1-yl)-N-({3-nitro-4-[(tetrahydro-2H-pyran-4-ylmethyl)amino]phenyl}sulfonyl)-2-(1H-pyrrolo[2,3-b]pyridin-5-yloxy)benzamide] | 0.107 µM |
| CC1(C)CCC(CN2CCN(c3ccc(C(=O)NS(=O)(=O)c4ccc(NCCCNC5CC5)c([N+](=O)[O-])c4)c(Oc4cnc5[nH]ccc5c4)c3)CC2)=C(c2ccc(Cl)cc2)C1 [Example 291, 4-(4-{[2-(4-chlorophenyl)-4,4-dimethylcyclohex-1-en-1-yl]methyl}piperazin-1-yl)-N-[(4-{[3-(cyclopropylamino)propyl]amino}-3-nitrophenyl)sulfonyl]-2-(1H-pyrrolo[2,3-b]pyridin-5-yloxy)benzamide] | 0.0161 µM |
| COCCOc1ncc(S(=O)(=O)NC(=O)c2ccc(N3CCN(CC4=C(c5ccc(Cl)cc5)CC(C)(C)CC4)CC3)cc2Oc2cnc3[nH]ccc3c2)cc1Cl [Example 292, N-{[5-chloro-6-(2-methoxyethoxy)pyridin-3-yl]sulfonyl}-4-(4-{[2-(4-chlorophenyl)-4,4-dimethylcyclohex-1-en-1-yl]methyl}piperazin-1-yl)-2-(1H-pyrrolo[2,3-b]pyridin-5-yloxy)benzamide] | 0.889 µM |

The remaining compounds from weak to strong by EC50, led by results:

| EC50 | Compound |
| --- | --- |
| 0.654 µM | CC1(C)CCC(CN2CCN(c3ccc(C(=O)NS(=O)(=O)c4cnc(OC[C@@H]5CCN(CC(F)F)C5)c(Cl)c4)c(Oc4cnc5[nH]ccc5c4)c3)CC2)=C(c2ccc(Cl)cc2)C1 [Example 281, N-[(5-chloro-6-{[(3R)-1-(2,2-difluoroethyl)pyrrolidin-3-yl]methoxy}pyridin-3-yl)sulfonyl]-4-(4-{[2-(4-chlorophenyl)-4,4-dimethylcyclohex-1-en-1-yl]methyl}piperazin-1-yl)-2-(1H-pyrrolo[2,3-b]pyridin-5-yloxy)benzamide] |
| 0.287 µM | CC1(C)CCC(CN2CCN(c3ccc(C(=O)NS(=O)(=O)c4cnc(OCC5CCOCC5)c(F)c4)c(Oc4cnc5[nH]ccc5c4)c3)CC2)=C(c2ccc(Cl)cc2)C1 [Example 293, 4-(4-{[2-(4-chlorophenyl)-4,4-dimethylcyclohex-1-en-1-yl]methyl}piperazin-1-yl)-N-{[5-fluoro-6-(tetrahydro-2H-pyran-4-ylmethoxy)pyridin-3-yl]sulfonyl}-2-(1H-pyrrolo[2,3-b]pyridin-5-yloxy)benzamide] |
| 0.125 µM | COCC(=O)N1CCC(COc2ccc(S(=O)(=O)NC(=O)c3ccc(N4CCN(CC5=C(c6ccc(Cl)cc6)CC(C)(C)CC5)CC4)cc3Oc3cnc4[nH]ccc4c3)cc2Cl)CC1 [Example 294, N-[(3-chloro-4-{[1-(methoxyacetyl)piperidin-4-yl]methoxy}phenyl)sulfonyl]-4-(4-{[2-(4-chlorophenyl)-4,4-dimethylcyclohex-1-en-1-yl]methyl}piperazin-1-yl)-2-(1H-pyrrolo[2,3-b]pyridin-5-yloxy)benzamide] |
| 0.0574 µM | CC1(C)CCC(CN2CCN(c3ccc(C(=O)NS(=O)(=O)c4cnc(OCC5(F)CCN(CC(F)F)CC5)c(Cl)c4)c(Oc4cnc5[nH]ccc5c4)c3)CC2)=C(c2ccc(Cl)cc2)C1 [Example 285, N-[(5-chloro-6-{[1-(2,2-difluoroethyl)-4-fluoropiperidin-4-yl]methoxy}pyridin-3-yl)sulfonyl]-4-(4-{[2-(4-chlorophenyl)-4,4-dimethylcyclohex-1-en-1-yl]methyl}piperazin-1-yl)-2-(1H-pyrrolo[2,3-b]pyridin-5-yloxy)benzamide] |
| 0.0148 µM | CN(C)CC(=O)N1CCC(COc2ccc(S(=O)(=O)NC(=O)c3ccc(N4CCN(CC5=C(c6ccc(Cl)cc6)CC(C)(C)CC5)CC4)cc3Oc3cnc4[nH]ccc4c3)cc2Cl)CC1 [Example 295, N-[(3-chloro-4-{[1-(N,N-dimethylglycyl)piperidin-4-yl]methoxy}phenyl)sulfonyl]-4-(4-{[2-(4-chlorophenyl)-4,4-dimethylcyclohex-1-en-1-yl]methyl}piperazin-1-yl)-2-(1H-pyrrolo[2,3-b]pyridin-5-yloxy)benzamide] |
| 0.00818 µM | CC1(C)CCC(CN2CCN(c3ccc(C(=O)NS(=O)(=O)c4cnc(OCC5(F)CCN(C6COC6)CC5)c(Cl)c4)c(Oc4cnc5[nH]ccc5c4)c3)CC2)=C(c2ccc(Cl)cc2)C1 [Example 277, N-[(5-chloro-6-{[4-fluoro-1-(oxetan-3-yl)piperidin-4-yl]methoxy}pyridin-3-yl)sulfonyl]-4-(4-{[2-(4-chlorophenyl)-4,4-dimethylcyclohex-1-en-1-yl]methyl}piperazin-1-yl)-2-(1H-pyrrolo[2,3-b]pyridin-5-yloxy)benzamide] |
